Key:
Assay in all cases: relative viability (nuclei count vs DMSO), 5 days (fraction); higher = more cells survive
[1] = compound: CC(=O)c1c(C)c2cnc(Nc3ccc(N4CCNCC4)cn3)nc2n(C2CCCC2)c1=O [Palbociclib] + COc1cc2c(Oc3ccc(NC(=O)C4(C(=O)Nc5ccc(F)cc5)CC4)cc3F)ccnc2cc1OCCCN1CCOCC1 [Foretinib] (partner 0.25 µM)
Procedure, shortened: (§1)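 Lung cancer cell lines in 1536-well plates got either a single drug or a fixed anchor-drug dose together with five library-drug doses (not always all listed) in √10 steps, by pin tool, on the day after seeding. Nuclei were counted after 5 days, and relative viability is the treated-to-vehicle ratio of nuclei counts. Values are medians of duplicate plates.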

[2] = compound: CC(=O)c1c(C)c2cnc(Nc3ccc(N4CCNCC4)cn3)nc2n(C2CCCC2)c1=O [Palbociclib] + Cc1cc(Nc2cc(N3CCN(C)CC3)nc(Sc3ccc(NC(=O)C4CC4)cc3)n2)n[nH]1 [Tozasertib] (partner 0.1 µM)
Procedure, shortened: as §1

[3] = compound: CC(=O)c1c(C)c2cnc(Nc3ccc(N4CCNCC4)cn3)nc2n(C2CCCC2)c1=O [Palbociclib] + Cc1nc(Nc2ncc(C(=O)Nc3c(C)cccc3Cl)s2)cc(N2CCN(CCO)CC2)n1 [Dasatinib] (partner 0.075 µM)
Procedure, shortened: as §1

NCI-H1666
relative viability ([1]; first compound 0.01 µM): 0.998 | relative viability ([1]; first compound 0.03162 µM): 0.941 | relative viability ([1]; first compound 0.1 µM): 0.875 | relative viability ([1]; first compound 0.3162 µM): 0.7 | relative viability ([1]; first compound 1 µM): 0.553 | relative viability ([2]; first compound 0.01 µM): 0.642 | relative viability ([2]; first compound 0.03162 µM): 0.585 | relative viability ([2]; first compound 0.1 µM): 0.539 | relative viability ([2]; first compound 0.3162 µM): 0.47 | relative viability ([2]; first compound 1 µM): 0.458 | relative viability ([3]; first compound 0.01 µM): 0.874 | relative viability ([3]; first compound 0.03162 µM): 0.644 | relative viability ([3]; first compound 0.1 µM): 0.683 | relative viability ([3]; first compound 0.3162 µM): 0.583 | relative viability ([3]; first compound 1 µM): 0.477

NCI-H1734
relative viability ([1]; first compound 0.01 µM): 0.831 | relative viability ([1]; first compound 0.03162 µM): 0.683 | relative viability ([1]; first compound 0.1 µM): 0.608 | relative viability ([1]; first compound 0.3162 µM): 0.686 | relative viability ([1]; first compound 1 µM): 0.503 | relative viability ([2]; first compound 0.01 µM): 0.267 | relative viability ([2]; first compound 0.03162 µM): 0.253 | relative viability ([2]; first compound 0.1 µM): 0.29 | relative viability ([2]; first compound 0.3162 µM): 0.231 | relative viability ([2]; first compound 1 µM): 0.277 | relative viability ([3]; first compound 0.01 µM): 0.461 | relative viability ([3]; first compound 0.03162 µM): 0.365 | relative viability ([3]; first compound 0.1 µM): 0.393 | relative viability ([3]; first compound 0.3162 µM): 0.296 | relative viability ([3]; first compound 1 µM): 0.254

NCI-H1755
relative viability ([1]; first compound 0.01 µM): 0.928 | relative viability ([1]; first compound 0.03162 µM): 0.893 | relative viability ([1]; first compound 0.1 µM): 0.819 | relative viability ([1]; first compound 0.3162 µM): 0.801 | relative viability ([1]; first compound 1 µM): 0.578 | relative viability ([2]; first compound 0.01 µM): 0.578 | relative viability ([2]; first compound 0.03162 µM): 0.596 | relative viability ([2]; first compound 0.1 µM): 0.558 | relative viability ([2]; first compound 0.3162 µM): 0.506 | relative viability ([2]; first compound 1 µM): 0.506 | relative viability ([3]; first compound 0.01 µM): 0.381 | relative viability ([3]; first compound 0.03162 µM): 0.373 | relative viability ([3]; first compound 0.1 µM): 0.371 | relative viability ([3]; first compound 0.3162 µM): 0.399 | relative viability ([3]; first compound 1 µM): 0.279

NCI-H1793
relative viability ([1]; first compound 0.01 µM): 0.689 | relative viability ([1]; first compound 0.1 µM): 0.713 | relative viability ([1]; first compound 0.3162 µM): 0.617 | relative viability ([1]; first compound 1 µM): 0.355 | relative viability ([2]; first compound 0.01 µM): 0.358 | relative viability ([2]; first compound 0.1 µM): 0.318 | relative viability ([2]; first compound 0.3162 µM): 0.339 | relative viability ([2]; first compound 1 µM): 0.276 | relative viability ([3]; first compound 0.01 µM): 0.409 | relative viability ([3]; first compound 0.1 µM): 0.359 | relative viability ([3]; first compound 0.3162 µM): 0.342 | relative viability ([3]; first compound 1 µM): 0.221

NCI-H1915
relative viability ([1]; first compound 0.01 µM): 1.04 | relative viability ([1]; first compound 0.03162 µM): 0.968 | relative viability ([1]; first compound 0.1 µM): 1.06 | relative viability ([1]; first compound 0.3162 µM): 0.95 | relative viability ([1]; first compound 1 µM): 0.905 | relative viability ([2]; first compound 0.01 µM): 0.435 | relative viability ([2]; first compound 0.03162 µM): 0.36 | relative viability ([2]; first compound 0.1 µM): 0.48 | relative viability ([2]; first compound 0.3162 µM): 0.471 | relative viability ([2]; first compound 1 µM): 0.452 | relative viability ([3]; first compound 0.01 µM): 0.293 | relative viability ([3]; first compound 0.03162 µM): 0.247 | relative viability ([3]; first compound 0.1 µM): 0.28 | relative viability ([3]; first compound 0.3162 µM): 0.247 | relative viability ([3]; first compound 1 µM): 0.245

NCI-H1944
relative viability ([1]; first compound 0.01 µM): 0.915 | relative viability ([1]; first compound 0.03162 µM): 0.807 | relative viability ([1]; first compound 0.1 µM): 0.768 | relative viability ([1]; first compound 0.3162 µM): 0.756 | relative viability ([1]; first compound 1 µM): 0.577 | relative viability ([2]; first compound 0.01 µM): 0.254 | relative viability ([2]; first compound 0.03162 µM): 0.242 | relative viability ([2]; first compound 0.1 µM): 0.293 | relative viability ([2]; first compound 0.3162 µM): 0.245 | relative viability ([2]; first compound 1 µM): 0.229 | relative viability ([3]; first compound 0.01 µM): 0.211 | relative viability ([3]; first compound 0.03162 µM): 0.162 | relative viability ([3]; first compound 0.1 µM): 0.193 | relative viability ([3]; first compound 0.3162 µM): 0.19 | relative viability ([3]; first compound 1 µM): 0.147

— the supplement of paper PMC10307832
